{
  "source": "paper PMC5380659",
  "about": "“Unique charge-dependent constraint on collagen recognition by integrin α10β1” (Matrix Biology, 2017)",
  "key": {"wild type α10 I domain": {"biological_target": "T1, wild type α10 I domain (Homo sapiens, UniProt O75578)", "T1 construct": "Recombinant human α10 I domain-encoding plasmid (pGEX-2T-α10 I domain) was cloned using standard procedures; made in house; host or cells: bacteria (pGEX-2T plasmid; the Origami strain is stated only for α2 I domains)", "T1 sequence (O75578 167-350 limits assumed)": "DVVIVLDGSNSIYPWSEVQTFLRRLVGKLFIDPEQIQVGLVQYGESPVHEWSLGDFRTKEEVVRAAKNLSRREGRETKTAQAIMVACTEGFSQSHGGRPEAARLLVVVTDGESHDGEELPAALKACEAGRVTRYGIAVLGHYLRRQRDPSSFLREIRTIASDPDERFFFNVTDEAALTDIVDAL", "test": "Concentration-dependent SPBA (KD) of wild-type α10 I domain", "format": "binding", "settings": "SPBA concentration dependence; for Saturation / quality of binding, wild type α10 I domain: up to 100 μg/ml; for KD, wild type α10 I domain: I domain up to 100 μg/ml, Fig. 9C and D", "experimental": "(§1) 96-well plates were prepared as for Fig. 1. A: binding to Toolkit II, B: binding to Toolkit III.\n(§2) I domain adhesion was determined colorimetrically, as described, here termed solid phase binding assay (SPBA). Peptides were coated at 10 μg/ml for 1 h at 22 °C on Immulon-2 HB 96-well plates (Thermo Life Sciences, Basingstoke, UK), and blocked for 1 h with 200 μl of TBS containing 50 mg/ml bovine serum albumin. […] Wells were washed five times with 200 μl of adhesion buffer containing MgCl2 or EDTA, before adding 100 μl of adhesion buffer containing the anti-GST-HRP conjugate at 1:10,000 dilution for 1 h at room temperature. After washing, colour was developed using an ImmunoPure TMB Substrate Kit (Pierce) according to the manufacturer's instructions."}, "C2C12-α10β1 cells": {"test_system": "C2C12-α10β1 cells", "test": "LDH-based SPBA of C2C12-α10β1 cell adhesion", "set-up": "species or system mouse", "settings": "short THPs, 2 mM Mg^2 +, 1 h, Fig. 4B", "experimental": "The mouse myoblast cell line, C2C12-α10β1 clone, expresses α10β1 as its sole collagen-binding integrin [16]. To investigate the binding of α10β1 to collagen in a cellular and whole integrin context, therefore, the adhesion of C2C12-α10β1 cells to Toolkits II and III was performed using two different approaches. First, SPBA was used, with lactate dehydrogenase to report the presence of adherent cells, after lysis, as described in Experimental. […] C2C12-α10B1 cells generally bound more prominently to those weaker peptides that supported just-observable binding of free I-domain. This may reflect avidity of the receptor-populated cell surface for the peptide-coated wells, or perhaps up-regulation of integrin affinity following receptor engagement. It is also possible that some cell binding reflects specific indirect interactions. For example, fibronectin, available either by intrinsic expression or from the serum supplement, binds well to II-44, and can also bind integrin αVβ3 [21].\nFig. 2 Binding of α10β1-transfected C2C12 cells to Collagen Toolkits. 96-well plates were coated with peptides as for Fig. 1, then C2C12-α10β1 cells (5 × 10^4 per well) were added and incubated for 1 h in the presence of either 2 mM MgCl2 or 2 mM EDTA as above. A: binding to Toolkit II. B: binding to Toolkit III.\nThe mouse myoblast cell line, C2C12, (control and transfectants, C2C12-α1β1, C2C12-α2β1, C2C12-α10β1 or C2C12-α11β1) was maintained in RPMI medium containing 10% fetal bovine serum, 2 mM glutamine, 100 IU/ml penicillin, 100 μg/ml streptomycin, and 2.5 μg/ml amphotericin. Cells were harvested by centrifugation, washed, and suspended at 0.5 × 10^6/ml in Tris-buffered saline supplemented with 5.5 mM glucose and either 2 mM EDTA or 2 mM MgCl2. SPBA was performed as follows: 100 μl of the cell suspension was added to peptide-coated wells [42] at 20 °C for 60 min. Cell adhesion was determined colorimetrically after lysis, using a lactate dehydrogenase (LDH)-based cell detection kit (Roche Diagnostics) according to the supplier's instructions."}, "α2β1": {"test_system": "α2β1", "set-up": "method as in 4 sources, ref [8], [10] = [8]; PMID 16326707; doi:10.1074/jbc.M509818200; 8 Raynal N. Hamaia S.W. Siljander P.R. Maddox B. Peachey A.R. Fernandez R. Foley L.J. Slatter D.A. Jarvis G.E. Farndale R.W. Use of synthetic peptides to locate novel integrin alpha2beta1-binding moti || [10]; PMID 16043429; doi:10.1074/jbc.M502431200; 10 Kim J.K. Xu Y. Xu X. Keene D.R. Gurusiddappa S. Liang X. Wary K.K. Hook M. A novel binding site in collagen type III for the integrins, alpha 1beta 1 and alpha 2beta 1 J. Biol. Chem. 280 2005 32512 ||| ref not given ||| ref [4] = [4]; PMID 19693543; doi:10.1007/s00441-009-0834-6; 4 Barczyk M. Carracedo S. Gullberg D. Integrins Cell Tissue Res. 339 1 2010 269 280 19693543 10.1007/s00441-009-0834-6 PMC2784866 ||| ref [12] = [12]; PMID 22654115; doi:10.1074/jbc.M112.353144; 12 Hamaia S.W. Pugh N. Raynal N. Nemoz B. Stone R. Gullberg D. Bihan D. Farndale R.W. Mapping of potent and specific binding motifs, GLOGEN and GVOGEA, for integrin alpha1beta1 using collagen toolkits", "settings": "cited from earlier work; for Binding to integrin α2β1, previously described: ref not given"}, "R215Q α10 I domain": {"biological_target": "T2, R215Q α10 I domain (Homo sapiens, UniProt O75578, R237Q)", "T2 construct": "made in house; host or cells: bacteria", "T2 sequence (O75578 167-350 R237Q)": "T1 sequence (O75578 167-350 limits assumed) with R71Q", "test": "Concentration-dependent SPBA (KD) of α10-R215Q I domain", "format": "binding", "settings": "SPBA concentration dependence; for Saturation / quality of binding, R215Q α10 I domain: up to 100 μg/ml; for KD, R215Q α10 I domain: I domain up to 100 μg/ml, Fig. 9C and D", "experimental": "as §1, §2"}},
  "note": "Substitutions are numbered along the chain they refer to. Entries after “also recorded” stand apart in the source; their conditions may differ.",
  "data": [
    {"substance": "GFOGER [THP containing GFOGER served as positive control, reference compound]", "values": [
      {"measurement": "Saturation / quality of binding, wild type α10 I domain", "setting": "wild type α10 I domain", "value": "did not saturate at up to 100 μg/ml; also recorded: good ligand"},
      {"measurement": "Adhesion of C2C12-α10β1 cells to short triple-helical peptides", "setting": "C2C12-α10β1 cells", "value": "less well"},
      {"measurement": "Binding to integrin α2β1, previously described", "setting": "α2β1", "value": "good binding motifs"},
      {"measurement": "Saturation / quality of binding, R215Q α10 I domain", "setting": "R215Q α10 I domain", "value": "did not saturate at up to 100 μg/ml; also recorded: good ligand"}
    ]},
    {"substance": "GROGER [short triple-helical peptide containing GROGER]", "values": [
      {"measurement": "KD, wild type α10 I domain", "setting": "wild type α10 I domain", "value": "> 100", "unit": "µg/mL"},
      {"measurement": "Saturation / quality of binding, wild type α10 I domain", "setting": "wild type α10 I domain", "value": "bound poorly"},
      {"measurement": "Adhesion of C2C12-α10β1 cells to short triple-helical peptides", "setting": "C2C12-α10β1 cells", "value": "absence of binding"},
      {"measurement": "Binding to integrin α2β1, previously described", "setting": "α2β1", "value": "good binding motifs"},
      {"measurement": "Binding to α2β1", "setting": "α2β1; ref [8], [10]", "value": "relatively good α2β1-binding motif"},
      {"measurement": "KD, R215Q α10 I domain", "setting": "R215Q α10 I domain", "value": "about 50 μg/ml"},
      {"measurement": "Saturation / quality of binding, R215Q α10 I domain", "setting": "R215Q α10 I domain", "value": "enhanced binding; also recorded: bound quite well"}
    ]},
    {"substance": "GLOGEN [short THP containing GLOGEN]", "values": [
      {"measurement": "KD, wild type α10 I domain", "setting": "wild type α10 I domain", "value": "~10", "unit": "µg/mL"},
      {"measurement": "Saturation / quality of binding, wild type α10 I domain", "setting": "wild type α10 I domain", "value": "saturation binding"},
      {"measurement": "Adhesion of C2C12-α10β1 cells to short triple-helical peptides", "setting": "C2C12-α10β1 cells", "value": "bound strongly"},
      {"measurement": "Binding to integrin α2β1, previously described", "setting": "α2β1", "value": "good binding motifs"},
      {"measurement": "KD, R215Q α10 I domain", "setting": "R215Q α10 I domain", "value": "~10", "unit": "µg/mL"},
      {"measurement": "Saturation / quality of binding, R215Q α10 I domain", "setting": "R215Q α10 I domain", "value": "enhanced binding of R215Q to GROGER but not GLOGEN; also recorded: saturation binding"}
    ]}
  ]
}
